According to doi:10.1101/662718v1 (biorxiv, 2019):

Key:
ecATCase [1] = biological target: T1, ecATCase (Escherichia coli, UniProt P0A786); assay: colorimetric ATCase activity assay, dose-response fit; assay type: biochemical
T1 sequence (P0A786 2-311): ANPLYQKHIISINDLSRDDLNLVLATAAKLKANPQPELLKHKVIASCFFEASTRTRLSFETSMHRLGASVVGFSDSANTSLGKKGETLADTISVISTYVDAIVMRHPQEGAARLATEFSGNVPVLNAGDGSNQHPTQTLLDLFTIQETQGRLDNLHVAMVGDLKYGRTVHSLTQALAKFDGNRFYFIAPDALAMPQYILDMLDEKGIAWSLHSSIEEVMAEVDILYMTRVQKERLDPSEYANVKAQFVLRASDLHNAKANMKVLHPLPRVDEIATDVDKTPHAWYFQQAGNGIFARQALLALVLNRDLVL

huATCase = biological target: T2, huATCase (Homo sapiens, UniProt P27708); assay: as above; assay type: biochemical
T2 sequence (P27708 1915-2225 limits assumed): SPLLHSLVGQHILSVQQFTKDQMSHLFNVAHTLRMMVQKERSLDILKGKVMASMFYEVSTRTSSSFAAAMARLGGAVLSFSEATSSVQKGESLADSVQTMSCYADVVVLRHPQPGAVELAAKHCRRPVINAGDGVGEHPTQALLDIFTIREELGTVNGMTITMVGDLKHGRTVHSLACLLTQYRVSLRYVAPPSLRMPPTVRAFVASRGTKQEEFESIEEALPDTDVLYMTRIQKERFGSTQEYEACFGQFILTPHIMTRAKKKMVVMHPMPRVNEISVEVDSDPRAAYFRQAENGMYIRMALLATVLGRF

ecATCase [2] = biological target: T1, ecATCase; assay: ITC; assay type: binding; conditions: 50 mM Tris-acetate pH 8.3, no Asp

| IC50 (ecATCase [1]) | IC50 (huATCase) | KD (ecATCase [2]) | Structure (SMILES) |
| --- | --- | --- | --- |
| 1.8 ± 0.4 µM | 4.1 ± 1.9 µM |  | O=c1[nH]c2ccc(Nc3nc4nonc4nc3N/N=C/c3ccccc3OCc3ccc(Cl)cc3Cl)cc2[nH]1 [YD19] |
| 5 ± 1.4 µM | 15.4 ± 1.6 µM |  | CC(C(=O)Oc1ccc(C2C3=C(Nc4[nH]c(=O)n(C)c(=O)c42)c2ccccc2C3=O)cc1)N1C(=O)c2ccccc2C1=O (centres unmarked) [YD21] |
|  |  | all ATCase variants were able to bind CP | NC(=O)OP(=O)(O)O [CP] |
